Consider 34 compounds from patent US12091411B2, “IRAK degraders and uses thereof” (Kymera Therapeutics, Inc., priority 2022, dated 2024).

For the test, the target named is T1, IRAK4 (Homo sapiens, UniProt Q9NWZ3).
T1 construct: Degradation of IRAK4 in OCI-LY10 was quantitatively measured using Meso Scale Discovery technology; endogenous in cells; host or cells: OCI-LY10
T1 sequence (Q9NWZ3 1-460): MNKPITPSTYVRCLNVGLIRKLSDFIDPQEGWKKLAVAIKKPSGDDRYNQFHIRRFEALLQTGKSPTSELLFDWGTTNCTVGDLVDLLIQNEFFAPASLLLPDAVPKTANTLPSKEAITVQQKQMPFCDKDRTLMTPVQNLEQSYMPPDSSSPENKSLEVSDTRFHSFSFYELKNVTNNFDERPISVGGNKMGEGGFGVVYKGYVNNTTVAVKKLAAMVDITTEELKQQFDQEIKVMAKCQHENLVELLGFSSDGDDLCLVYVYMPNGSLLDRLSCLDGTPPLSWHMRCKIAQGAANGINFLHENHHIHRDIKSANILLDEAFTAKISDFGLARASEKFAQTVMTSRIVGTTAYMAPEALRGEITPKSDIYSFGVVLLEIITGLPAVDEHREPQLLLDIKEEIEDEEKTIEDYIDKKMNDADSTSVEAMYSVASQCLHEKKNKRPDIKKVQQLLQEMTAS
Briefly: IRAK4 MSD Degradation in OCI-LY10. The conditions noted are these: OCI-LY10 cells, MSD. The test is classed as cell-based. The gist of the method: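 OCI-LY10 cells exposed to 8-point 1:3 compound series (top 1 to 10 μM) for 4 to 24 h at 37 °C, 5% CO2. Lysate IRAK4 quantified by MSD sandwich immunoassay. DC50 from three-parameter logistic fit, binned A (<0.01 μM) to D (>0.2 μM or not tested).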

The mark [1] stands for this setting: 4 hrs incubation, read-out: IRAK4 degradation in OCI-LY10 at 4 hrs: DC50.
Setting [2] is: 24 hrs incubation, read-out: IRAK4 degradation in OCI-LY10 at 24 hrs: DC50.

SMILES strings stand for the structures. Like-named read-outs stand apart in the source and are kept apart here.

What is called DC50 is the concentration at which degradation of the target reaches its halfway point. For the compound `CN(C[C@H]1CC[C@H](n2cc(NC(=O)c3cnn4ccc(N5CCOCC5)nc34)c(C(F)F)n2)CC1)C1CCN(c2cccc3c2n(C)c(=O)n3C2CCC(=O)NC2=O)CC1(F)F` (some centres unmarked) [I-522], the DC50 is > 200 nM under setting [1] and 10 to 100 nM under setting [2].
The corresponding values for `CN(C[C@H]1CC[C@H](n2cc(NC(=O)c3cnn4ccc(N5C[C@@H]6C[C@H]5CO6)nc34)c(C(F)F)n2)CC1)C1CCN(c2cccc3c2n(C)c(=O)n3C2CCC(=O)NC2=O)CC1(F)F` (some centres unmarked) [I-523] are > 200 nM and 10 to 100 nM.
The corresponding values for `CN(C[C@H]1CC[C@H](n2cc(NC(=O)c3cnn4ccc(N5C6COCC5C6)nc34)c(C(F)F)n2)CC1)C1CCN(c2cccc3c2n(C)c(=O)n3C2CCC(=O)NC2=O)CC1(F)F` (some centres unmarked) [I-524] are > 200 nM and 10 to 100 nM.
`CN(C[C@H]1CC[C@H](n2cc(NC(=O)c3cnn4ccc(N5CC6CC(C5)O6)nc34)c(C(F)F)n2)CC1)C1CCN(c2cccc3c2n(C)c(=O)n3C2CCC(=O)NC2=O)CC1(F)F` (some centres unmarked) [I-525]: the DC50 is, setting by setting: under setting [1], > 200 nM; under setting [2], < 10 nM.
The matching figures for `CN(C[C@H]1CC[C@H](n2cc(NC(=O)c3cnn4ccc(N5CC6CCC(C5)O6)nc34)c(C(F)F)n2)CC1)C1CCN(c2cccc3c2n(C)c(=O)n3C2CCC(=O)NC2=O)CC1(F)F` (some centres unmarked) [I-526]: > 200 nM and 10 to 100 nM.
The matching figures for `CN(C[C@H]1CC[C@H](n2cc(NC(=O)c3cnn4ccc(N5C6CCC5COC6)nc34)c(C(F)F)n2)CC1)C1CCN(c2cccc3c2n(C)c(=O)n3C2CCC(=O)NC2=O)CC1(F)F` (some centres unmarked) [I-527]: > 200 nM and 10 to 100 nM.
For the compound `C[C@H]1CN(c2ccn3ncc(C(=O)Nc4cn([C@H]5CC[C@H](CN(C)C6CCN(c7cccc8c7n(C)c(=O)n8C7CCC(=O)NC7=O)CC6(F)F)CC5)nc4C(F)F)c3n2)CCO1` (some centres unmarked) [I-528], the DC50 was > 200 nM under setting [1] and 10 to 100 nM under setting [2].
The corresponding values for `C[C@@H]1CN(c2ccn3ncc(C(=O)Nc4cn([C@H]5CC[C@H](CN(C)C6CCN(c7cccc8c7n(C)c(=O)n8C7CCC(=O)NC7=O)CC6(F)F)CC5)nc4C(F)F)c3n2)CCO1` (some centres unmarked) [I-529] are > 200 nM and 10 to 100 nM.
In the case of `CN(C[C@H]1CC[C@H](n2cc(NC(=O)c3cnn4ccc(N5CCOC(C)(C)C5)nc34)c(C(F)F)n2)CC1)C1CCN(c2cccc3c2n(C)c(=O)n3C2CCC(=O)NC2=O)CC1(F)F` (some centres unmarked) [I-530], the DC50 runs as follows: under setting [1], > 200 nM; under setting [2], 10 to 100 nM.
The corresponding values for `CN(C[C@H]1CC[C@H](n2cc(NC(=O)c3cnn4ccc(N5CC(C)(C)OC(C)(C)C5)nc34)c(C(F)F)n2)CC1)C1CCN(c2cccc3c2n(C)c(=O)n3C2CCC(=O)NC2=O)CC1(F)F` (some centres unmarked) [I-531] are > 200 nM and > 200 nM.
The corresponding values for `C[C@@H]1CN(c2ccn3ncc(C(=O)Nc4cn([C@H]5CC[C@H](CN(C)C6CCN(c7cccc8c7n(C)c(=O)n8C7CCC(=O)NC7=O)CC6(F)F)CC5)nc4C(F)F)c3n2)C[C@H](C)O1` (some centres unmarked) [I-532] are > 200 nM and > 200 nM.
The corresponding values for `C[C@H]1CN(c2ccn3ncc(C(=O)Nc4cn([C@H]5CC[C@H](CN(C)C6CCN(c7cccc8c7n(C)c(=O)n8C7CCC(=O)NC7=O)CC6(F)F)CC5)nc4C(F)F)c3n2)C[C@H](C)O1` (some centres unmarked) [I-533] are > 200 nM and > 200 nM.
On to `CN(C[C@H]1CC[C@H](n2cc(NC(=O)c3cnn4ccc(N5CCO[C@@H](C(F)F)C5)nc34)c(C(F)F)n2)CC1)C1CCN(c2cccc3c2n(C)c(=O)n3C2CCC(=O)NC2=O)CC1(F)F` (some centres unmarked) [I-535], for which the half-maximal degradation concentration (DC50) was > 200 nM under setting [1] and > 200 nM under setting [2].
As for `CN(C[C@H]1CC[C@H](n2cc(NC(=O)c3cnn4ccc(N5CCO[C@H](C(F)F)C5)nc34)c(C(F)F)n2)CC1)C1CCN(c2cccc3c2n(C)c(=O)n3C2CCC(=O)NC2=O)CC1(F)F` (some centres unmarked) [I-536], the 50% degradation concentration (DC50) was > 200 nM under setting [1] and > 200 nM under setting [2].
With `CN(C[C@H]1CC[C@H](n2cc(NC(=O)c3cnn4ccc(N5CCO[C@@H](C(F)(F)F)C5)nc34)c(C(F)F)n2)CC1)C1CCN(c2cccc3c2n(C)c(=O)n3C2CCC(=O)NC2=O)CC1(F)F` (some centres unmarked) [I-537], the 50% degradation concentration (DC50) was > 200 nM under setting [1] and > 200 nM under setting [2].
Turning to `CN(C[C@H]1CC[C@H](n2cc(NC(=O)c3cnn4ccc(N5CCO[C@H](C(F)(F)F)C5)nc34)c(C(F)F)n2)CC1)C1CCN(c2cccc3c2n(C)c(=O)n3C2CCC(=O)NC2=O)CC1(F)F` (some centres unmarked) [I-538], the DC50 is, setting by setting: under setting [1], > 200 nM; under setting [2], > 200 nM.
Take `CN(C[C@H]1CC[C@H](n2cc(NC(=O)c3cnn4ccc(N5CCOC6(CC6)C5)nc34)c(C(F)F)n2)CC1)C1CCN(c2cccc3c2n(C)c(=O)n3C2CCC(=O)NC2=O)CC1(F)F` (some centres unmarked) [I-539]: the 50% degradation concentration (DC50) runs as follows: under setting [1], > 200 nM; under setting [2], > 200 nM.
In the case of `CN(C[C@H]1CC[C@H](n2cc(NC(=O)c3cnn4ccc(N5CCOC6(CCC6)C5)nc34)c(C(F)F)n2)CC1)C1CCN(c2cccc3c2n(C)c(=O)n3C2CCC(=O)NC2=O)CC1(F)F` (some centres unmarked) [I-540], the half-maximal degradation concentration (DC50) reads like this: under setting [1], > 200 nM; under setting [2], > 200 nM.
In the case of `CN(C[C@H]1CC[C@H](n2cc(NC(=O)c3cnn4ccc(N5CCSCC5)nc34)c(C(F)F)n2)CC1)C1CCN(c2cccc3c2n(C)c(=O)n3C2CCC(=O)NC2=O)CC1(F)F` (some centres unmarked) [I-541], the DC50 by setting is: under setting [1], > 200 nM; under setting [2], > 200 nM.
For `CN(C[C@H]1CC[C@H](n2cc(NC(=O)c3cnn4ccc(N5CCS(=O)(=O)CC5)nc34)c(C(F)F)n2)CC1)C1CCN(c2cccc3c2n(C)c(=O)n3C2CCC(=O)NC2=O)CC1(F)F` (some centres unmarked) [I-542], the DC50 under setting [1] is > 200 nM and the DC50 under setting [2] is > 200 nM.
Take `CN(C[C@H]1CC[C@H](n2cc(NC(=O)c3cnn4ccc(N5CCCCCC5)nc34)c(C(F)F)n2)CC1)C1CCN(c2cccc3c2n(C)c(=O)n3C2CCC(=O)NC2=O)CC1(F)F` (some centres unmarked) [I-543]: the half-maximal degradation concentration (DC50) is > 200 nM under setting [1] and > 200 nM under setting [2].
For the compound `CN(C[C@H]1CC[C@H](n2cc(NC(=O)c3cnn4ccc(N5CCCOCC5)nc34)c(C(F)F)n2)CC1)C1CCN(c2cccc3c2n(C)c(=O)n3C2CCC(=O)NC2=O)CC1(F)F` (some centres unmarked) [I-544], the DC50 runs as follows: under setting [1], > 200 nM; under setting [2], 10 to 100 nM.
The matching figures for `Cn1c(=O)n(C2CCC(=O)NC2=O)c2cccc(C3CCN(C[C@H]4CC[C@H](n5cc6cc(NC(=O)c7cccc(C(F)(F)F)n7)c(C(F)F)cc6n5)CC4)CC3F)c21` (some centres unmarked) [I-545]: > 200 nM and < 10 nM.
As to `COc1ccc2c(c1C1CCN(C[C@H]3CC[C@H](n4cc5cc(NC(=O)c6cccc(C(F)(F)F)n6)ncc5n4)CC3)CC1F)n(C)c(=O)n2C1CCC(=O)NC1=O` (some centres unmarked) [I-546], the DC50 under setting [1] is > 200 nM and the DC50 under setting [2] is > 200 nM.
Take `COc1cc2nn([C@H]3CC[C@H](CN4CCC(c5cccc6c5n(C)c(=O)n6C5CCC(=O)NC5=O)C(F)C4)CC3)cc2cc1NC(=O)c1cccc(C(F)(F)F)n1` (some centres unmarked) [I-547]: the DC50 is > 200 nM under setting [1] and < 10 nM under setting [2].
Turning to `Cn1c(=O)n(C2CCC(=O)NC2=O)c2cccc(C3CCN(C[C@H]4CC[C@H](n5cc6cc(NC(=O)c7cccc(C(F)(F)F)n7)c(C#N)cc6n5)CC4)CC3F)c21` (some centres unmarked) [I-548], the DC50 is, setting by setting: under setting [1], > 200 nM; under setting [2], < 10 nM.
The matching figures for `Cn1c(=O)n(C2CCC(=O)NC2=O)c2cccc(C3CCN(C[C@H]4CC[C@H](n5cc6cc(NC(=O)c7cccc(C(F)(F)F)n7)ncc6n5)CC4)CC3F)c21` (some centres unmarked) [I-549]: > 200 nM and < 10 nM.
The matching figures for `Cc1cc2nn([C@H]3CC[C@H](CN4CCC(c5cccc6c5n(C)c(=O)n6C5CCC(=O)NC5=O)C(F)C4)CC3)cc2cc1NC(=O)c1cccc(C(F)(F)F)n1` (some centres unmarked) [I-550]: > 200 nM and < 10 nM.
The corresponding values for `COc1ccc2c(c1C1CCN(C[C@H]3CC[C@H](n4cc5cc(NC(=O)c6cccc(C(F)(F)F)n6)ccc5n4)CC3)CC1F)n(C)c(=O)n2C1CCC(=O)NC1=O` (some centres unmarked) [I-551] are > 200 nM and > 200 nM.
As for `Cn1c(=O)n(C2CCC(=O)NC2=O)c2cccc(C3CCN(C[C@H]4CC[C@H](n5cc6cc(NC(=O)c7cccc(C(F)(F)F)n7)c(Cl)cc6n5)CC4)CC3F)c21` (some centres unmarked) [I-552], the DC50 by setting is: under setting [1], > 200 nM; under setting [2], 10 to 100 nM.
The matching figures for `Cn1c(=O)n(C2CCC(=O)NC2=O)c2cccc(C3CCN(C[C@H]4CC[C@H](n5cc6cc(NC(=O)c7cccc(C(F)(F)F)n7)ccc6n5)CC4)CC3F)c21` (some centres unmarked) [I-553]: > 200 nM and < 10 nM.
The corresponding values for `Cn1c(=O)n(C2CCC(=O)NC2=O)c2cccc(C3CCN(C[C@H]4CC[C@H](n5cc6cc(NC(=O)c7cccc(C(F)(F)F)n7)c(F)cc6n5)CC4)CC3F)c21` (some centres unmarked) [I-554] are > 200 nM and 10 to 100 nM.
The corresponding values for `CN(C[C@H]1CC[C@H](n2cc3cc(NC(=O)c4cccc(C(F)(F)F)n4)ccc3n2)CC1)C1CCN(c2cccc3c2n(C)c(=O)n3C2CCC(=O)NC2=O)CC1F` (some centres unmarked) [I-555] are > 200 nM and 10 to 100 nM.
With `COc1cc2nn([C@H]3CC[C@H](CN(C)C4CCN(c5cccc6c5n(C)c(=O)n6C5CCC(=O)NC5=O)CC4F)CC3)cc2cc1NC(=O)c1cccc(C(F)(F)F)n1` (some centres unmarked) [I-556], the DC50 is > 200 nM under setting [1] and > 200 nM under setting [2].
